# Results: patent US20050054006A1, “Combinatorial fluorescent library based on the styryl scaffold” (New York University, priority 2003, published 2005)
# Assay: Fluorescence excitation/emission of the styryl dye library compounds
# Format: physicochemical
# Settings: EX/EM peak no. 1
SMILES,EM(nm),EX(nm)
COc1ccc(C=Cc2cc[n+](C)c3ccccc23)cc1O.[I-] [Compound G15],560,420-460 nm
C[n+]1ccc(C=Cc2ccc3ccc4cccc5ccc2c3c45)c2ccccc21.[I-] [Compound G41],660,500 nm
COc1cc(C=Cc2cccc(C)[n+]2C)cc(OC)c1OC.[I-] [Compound L13],540,380 nm
COc1ccccc1C=Cc1cc[n+](C)c(Br)c1.[I-] [Compound F9],520,400 nm
C[n+]1ccc(C=Cc2ccccc2F)c2ccccc21.[I-] [Compound G29],560,450 nm
C[n+]1ccc(C=Cc2ccc(O)cc2)cc1.[I-] [Compound A16],510,390-420 nm
COc1ccc2c(ccc(C=Cc3ccc4c(c3)OCO4)[n+]2C)c1.[I-] [Compound I39],500,380 nm
C[n+]1ccccc1C=Cc1cccc2ccccc12.[I-] [Compound C32],550,390 nm
COc1ccc(C=Cc2cccc[n+]2C)c2ccccc12.[I-] [Compound C14],530,390 nm
CN(C)c1ccc(C=Cc2cccc[n+]2C)c2ccccc12.[I-] [Compound C27],620,450 nm
CN(C)c1ccc(C=Cc2cc[n+](C34CC5CC(CC(C5)C3)C4)cc2)cc1.[Br-] [Compound B19],610,380-540 nm
C[n+]1ccc(/C=C/c2ccc3c(c2)OCO3)c2ccccc21.[I-] [Compound G39],590,430 nm
C[n+]1ccc(C=Cc2ccc3ccccc3c2)cc1.[I-] [Compound A33],600,360-420 nm
Brc1ccc(C=Cc2cc[n+](C34CC5CC(CC(C5)C3)C4)cc2)cc1.[Br-] [Compound B5],570,385 nm
Cc1ccnc(-c2cc(C=CC=Cc3ccccc3[N+](=O)[O-])cc[n+]2C)c1.[I-] [Compound J36],540,420 nm
COc1cc(C=Cc2cc[n+](C)c3ccccc23)cc(OC)c1OC.[I-] [Compound G13],620,420 nm
CCc1ccc(C=Cc2cc(OC)c(OC)c(OC)c2)[n+](C)c1.[I-] [Compound E13],540,380 nm
Fc1ccccc1C=Cc1cc[n+](C23CC4CC(CC(C4)C2)C3)cc1.[Br-] [Compound B29],560,400-420 nm
C[n+]1c(C=Cc2ccc(Br)cc2)ccc2ccccc21.[I-] [Compound H5],640,480 nm
Cc1ccnc(-c2cc(C=Cc3ccc4ccc5cccc6ccc3c4c56)cc[n+]2C)c1.[I-] [Compound J41],630,460 nm
CC(=O)Nc1ccc(C=Cc2cc[n+](C)cc2)cc1.[I-] [Compound A18],610,420 nm
COc1ccc(C=Cc2cc[n+](C)cc2)cc1O.[I-] [Compound A15],510,
COc1ccc2c(ccc(C=Cc3cc(OC)c(OC)c(OC)c3)[n+]2C)c1.[I-] [Compound I13],580,430 nm

SMILES,EM(nm),EX(nm)
Cc1ccnc(-c2cc(C=CC=Cc3ccc(N(C)C)cc3)cc[n+]2C)c1.[I-] [Compound J37],730,550(broad) nm
C[n+]1ccc(/C=C/c2ccc(O)cc2)c2ccccc21.[I-] [Compound G16],560,430 nm
COc1cc(C=Cc2cc[n+](C)cc2)cc(OC)c1OC.[I-] [Compound A13],550,390 nm
COc1cc(OC)c(OC)cc1C=Cc1cccc[n+]1C.[I-] [Compound C38],580,420 nm
COc1ccc(C=Cc2cccc(C)[n+]2C)cc1O.[I-] [Compound L15],570,390 nm
CCc1ccc(C=Cc2cc(OC)c(OC)cc2OC)[n+](C)c1.[I-] [Compound E38],560,430 nm
Cc1cccc(C=Cc2ccc(N(C)C)c3ccccc23)[n+]1C.[I-] [Compound L27],620,430 nm
Cc1ccnc(-c2cc(/C=C/c3c[nH]c4ccccc34)cc[n+]2C)c1.[I-] [Compound J24],560,420-500 nm
C[n+]1c(C=Cc2ccc(Cl)cc2)ccc2ccccc21.[I-] [Compound H6],640,530 nm
COc1ccc2c(ccc(C=Cc3ccc(OC)c(O)c3)[n+]2C)c1.[I-] [Compound I15],520,360 nm
C[n+]1ccc(C=CC=Cc2ccccc2[N+](=O)[O-])cc1.[I-] [Compound A36],700,430 nm
Cc1cccc(C=Cc2ccc(OCc3ccccc3)c(OCc3ccccc3)c2)[n+]1C.[I-] [Compound L12],520,390 nm
CN(C)c1ccc(C=Cc2cc[n+](C)c(Br)c2)c2ccccc12.[I-] [Compound F27],640,460 nm
CCc1ccc(C=Cc2ccccn2)[n+](C)c1.[I-] [Compound E40],610,390 nm
C[n+]1c(C=Cc2c3ccccc3cc3ccccc23)ccc2ccccc21.[I-] [Compound H34],650,460 nm
COc1cc(OC)c(OC)cc1C=Cc1cc[n+](C)cc1.[I-] [Compound A38],540,410 nm
C[n+]1ccccc1C=Cc1ccc2c(c1)OCO2.[I-] [Compound C39],520,340 nm
COc1ccc2c(ccc(C=CC=Cc3ccccc3[N+](=O)[O-])[n+]2C)c1.[I-] [Compound I36],530,360 nm
COc1ccc(C=Cc2cccc(C)[n+]2C)c2ccccc12.[I-] [Compound L14],570,420 (broad) nm
Fc1ccc(C=Cc2cc[n+](C34CC5CC(CC(C5)C3)C4)cc2)cc1.[Br-] [Compound B30],590,
Cc1ccnc(-c2cc(/C=C/c3ccccn3)cc[n+]2C)c1.[I-] [Compound J40],580,400 nm
Cc1cccc(/C=C/c2c[nH]c3ccccc23)[n+]1C.[I-] [Compound L24],500,430 nm
COc1ccc(/C=C/c2cc[n+](C)c(Br)c2)cc1.[I-] [Compound F10],520,460 nm

SMILES,EM(nm),EX(nm)
C[n+]1ccc(C=Cc2ccccc2F)cc1.[I-] [Compound A29],560,400-420 nm
COc1ccc(C=Cc2cccc[n+]2C)cc1O.[I-] [Compound C15],500,390 nm
COc1ccc2c(ccc(C=Cc3ccc(Br)cc3)[n+]2C)c1.[I-] [Compound I5],650,420 nm
Cc1cccc(/C=C/c2ccccn2)[n+]1C.[I-] [Compound L40],620,380 nm
CCc1ccc(/C=C/c2c[nH]c3ccccc23)[n+](C)c1.[I-] [Compound E24],510,430 nm
COc1cc(OC)c(OC)cc1C=Cc1cc[n+](C)c(Br)c1.[I-] [Compound F38],540,460 nm
C(=Cc1c2ccccc2cc2ccccc12)c1cc[n+](C23CC4CC(CC(C4)C2)C3)cc1.[Br-] [Compound B34],610,460 nm
C[n+]1ccc(C=Cc2ccc([N+](=O)[O-])cc2)cc1.[I-] [Compound A22],540,400 nm
C[n+]1ccccc1C=Cc1ccccn1.[I-] [Compound C40],610,390 nm
Cc1cccc(/C=C/c2ccc(-c3ccccc3)cc2)[n+]1C.[I-] [Compound L17],500,420 nm
CN(C)c1ccc(/C=C/C=C/c2cc[n+](C)c3ccccc23)cc1.[I-] [Compound G37],670,530 nm
CCc1ccc(C=Cc2ccc(OCc3ccccc3)c(OCc3ccccc3)c2)[n+](C)c1.[I-] [Compound E12],510,400 nm
COc1cc(C=Cc2cccc[n+]2C)cc(OC)c1OC.[I-] [Compound C13],540,380 nm
C[n+]1ccc(/C=C/c2ccc3c(c2)Cc2ccccc2-3)c2ccccc21.[I-] [Compound G28],620,450 nm
CCc1ccc(C=Cc2cccc3ccccc23)[n+](C)c1.[I-] [Compound E32],560,420 nm
CC(=O)Nc1ccc(C=Cc2cc[n+](C34CC5CC(CC(C5)C3)C4)cc2)cc1.[Br-] [Compound B18],580,420 nm
COc1ccc2ccccc2c1C=Cc1cc[n+](C)c(-c2cc(C)ccn2)c1.[I-] [Compound J23],570,430-460 nm
CCc1ccc(/C=C/c2ccc3c(c2)OCO3)[n+](C)c1.[I-] [Compound E39],500,390-420 (broad) nm
Cc1ccnc(-c2cc(C=Cc3c4ccccc4cc4ccccc34)cc[n+]2C)c1.[I-] [Compound J34],630,430 nm
Cc1cccc(C=Cc2ccc3c(c2)OCO3)[n+]1C.[I-] [Compound L39],510,390 nm
COc1ccc2c(ccc(C=Cc3c4ccccc4cc4ccccc34)[n+]2C)c1.[I-] [Compound I34],650,490 nm
Cc1cccc(C=Cc2ccc(O)cc2)[n+]1C.[I-] [Compound L16],500,390 nm
